Data taken from patent publication US6297230A, “Cyanoaziridines for treating cancer” (priority 2000, dated 2001).
Where two headings read alike, the source gives them in different places.

Tests used:
8226/S myeloma cells = assay: MTT growth inhibition, parental 8226 myeloma cells; format: cell-based, human; details: Homo sapiens, read-out: IC50
Method: (§1) Microculture Tetrazolium (MTT) Assay for Tumor Cells
(§2) Tumors are disaggregated into single cell suspensions using mechanical, hypoosmotic, and/or enzymatic (trypsin) methods. The cells are plated at a concentration of 3-5×10^4 per […] well into plastic 96-well plates. Growth medium containing 5-10% (vol/vol) heat-inactivated fetal bovine serum and penicillin/streptomycin (both […]) are added prior to incubation at 37° C. for 6 days. Afterwards the medium containing the drug is removed, the cells are centrifuged in fresh medium or phosphate-buffered saline (pH 7.4). A tetrazolium dye, […]-2,5-diphenyl tetrazolium (MTT), is then added. (Mossman, T., J Immunol 65:55-63, 1983.) This dye forms a colored formazan product upon activation by mitochondrial reductases in viable cells. Typically, the formazan product is solubilized in acid-propanol or DMSO. The intensity of the color is proportional to viable cell numbers and this is quantitated by spectrophotometric absorbance at 570 nm on a micro ELISA plate reader. The results are calibrated in % control absorbance from untreated tumor cells. (Alley, et al., Cancer Res 48:589-601, 1988.)
(§3) The following unpublished studies were performed in vitro to develop and characterize a human myeloma cell line with resistance to imexon-induced cytotoxicity. The original (parental) 8226 cell line was developed by Matsuoka, et al. (Matsuoka, et al., Proc Soc Exp Biol Med 125:1246-1250, 1967). It is a lymphoblastoid cell line which stains for lambda light immunoglobulin production. It grows in vitro in suspension culture (non-adherent) and forms tumors when injected into SCID mice. (Skehan, et al., J Natl Cancer Inst 82:1107-1112, 1990.)
(§4) One exciting feature of our novel compounds is, that they work on imexon-resistant cells. An imexon-resistant 8226 myeloma cell line was selected by continuously exposing cells to gradually increasing concentrations of imexon up to 3.25 mg/mL. This cell line has slightly longer cell doubling time than 8226 sensitive cells (24 vs 20 hours). […] The dose response curve for imexon continuous exposure was determined using MTT assay. Each data point represents the mean of three experiments performed in 8 replicates.
(§5) We compared IC50 concentrations and there is a 4-fold resistance observed for the 8226/I-R cell line when the cells were continuously exposed to imexon for […] at 37° C. The degree of resistance was relatively unstable in the absence of the drug, with the resistant cells losing substantial resistance when maintained in imexon-free medium for 20 weeks (FIG. 2).
(§6) IC50 was measured by MTT assay. IC50 refer to the concentration by drug that results in 50% growth inhibition. A minimum of 2 assays were performed for each drug following 250 mg/mL imexon is equivalent to 6.5 cGy radiation in sensitive cells.
(§7) Using the colorimetric microculture tetrazolium (MTT) assay, imexon and 25-related analogs were studied for tumor growth inhibition in vitro. Imexon-induced DNA single strand breaks were assessed by alkaline elution. Cells were exposed to imexon for 1 hour prior to start of experiment. The fraction of ^14 C-labeled DNA retained on the filter is plotted against the time of elution. The cells included parental 8226 myeloma cells and the 8226 imexon-resistant cells exposed to drug (imexon or analog) continuously for 10 days at 37° C. At the end of the exposure period, the cells were analyzed for viability using the formazan-forming tetrazolium dye (MTT) assay.

8226/I-R myeloma cells = assay: MTT growth inhibition, imexon-resistant 8226 myeloma cells; format: cell-based, human; details: for IC50: Homo sapiens, read-out: IC50; for Fold Resistance (IC50 resistant cells/IC50 sensitive cells): Table 4, 8226/I-R vs 8226/S
Method: as §1, §2, §3, §4, §5, §6, §7

[1] = test system: DNA of 8226 myeloma cells; assay: Imexon-induced DNA single strand breaks by alkaline elution; format: cell-based, human; details: for DNA single strand breaks: 8226 cells, 10-500 μg/mL
Method: as §7
These strand breaks are noted by an enhanced rate of ^14 C-DNA elution through the filters after a one-hour exposure to imexon (10-500 μg/mL) at 30° C. At high imexon concentrations of≥100 μg/mL, over 75% of the radiolabeled DNA is eluted through the filters over the test period. By comparison, control cell DNA is highly retained (>95%) on the filter over the same 24-hour elution period.

Myelosuppression = details: in vivo
Oral activity in mice = format: in vivo
[2] = Tolerability and activity on prolonged dosing in tumor-bearing mice and dogs; format: in vivo; details: suggested by prior studies in mice and dogs
[3] = test system: AIDS-related lymphoma / lymphoma cells; assay: Activity against lymphoma cells in vitro; format: cell-based; details: Table 1B
[4] = test system: human prostate cancer tumors; assay: Activity in prostate cancer in SCID mouse model; format: in vivo, human tumors in SCID mice; details: Table 1B
[5] = test system: advanced solid tumors in cancer patients; details: cited from earlier work; for Clinical response: Phase I clinical trials
[6] = cited from earlier work
human tumor cell lines = details: in culture; cited from earlier work
[7] = test system: multiple myeloma (clonogenic assay); details: cited from earlier work
transplanted tumors = details: rodents; cited from earlier work
[8] = test system: human lymphoma, melanoma, and prostate cancer cell lines; details: cited from earlier work
mast cell tumors = details: cited from earlier work
[9] = background statement; cited from earlier work
MCF-7/MITOX cells = details: cited from earlier work
[10] = test system: OVCAR-3 ovarian carcinoma cells; details: cited from earlier work
[11] = test system: L-1210 MDR leukemia cells; details: cited from earlier work
WiDr MITOX cells = details: cited from earlier work
MCF-7/ADR cells = details: cited from earlier work
MCF-7/D40 cells = details: MCF-7/DOX40; cited from earlier work

Which results are given for `N=C1NC(=O)N2CC12` (stereo not shown) [AMP 400, 4-imino-1,3-diazabicyclo[3.1.0]hexan-2-one]?
IC50 (8226/S myeloma cells; 8226/S, MTT): 27 µM; IC50 (8226/S myeloma cells; Table 5, Sensitive (parental) 8226): 1 µg/mL; IC50 (8226/I-R myeloma cells; 8226/I-R, MTT): 120 µM; IC50 (8226/I-R myeloma cells; Table 5, imexon-resistant 8226): 8.5 µg/mL; Fold Resistance (IC50 resistant cells/IC50 sensitive cells) (8226/I-R myeloma cells): 4.44; Fold Resistance of IC50 R/IC50 's (8226/I-R myeloma cells; Table 5, imexon-resistant vs sensitive 8226): 4.5; Fold resistance (8226/I-R myeloma cells; continuous exposure for 5 days at 37° C): 4 fold; DNA single strand breaks ([1]; one-hour exposure, listed as Imexon): induced single strand breaks in both 8226 imexon-sensitive and resistant cells; DNA single strand breaks ([1]; one-hour exposure, listed as imexon): induces concentration-dependent single-stranded breaks in tumor cell DNA; DNA strand breaks, resistant vs sensitive cells ([1]; given dose of imexon, p<0.05): fewer strand breaks in imexon-resistant cells than in sensitive cells; Radiolabeled DNA eluted over the test period ([1]; imexon ≥100 μg/mL, one-hour exposure): over 75%; Radiation equivalent of 250 mg/mL imexon ([1]; sensitive cells, 250 μg/mL imexon): 6.5 cGy; Myelosuppression (Myelosuppression): has not demonstrated myelosuppressive toxicity; Oral activity (Oral activity in mice): not active orally in mice; Maximally-tolerated human dose [2]: approximately 500 mg/m^2 /day; Activity in lymphoma in vitro [3]: active in vitro; Activity in prostate cancer [4]: active in; Clinical response ([5]; listed as Imexon): produced objective responses or stabilized neoplastic diseases in cancer patients; Clinical response ([5]; listed as parent compound): parent compound; Additional patients with disease stabilization ([5]; advanced tumors): 8 patients; Duration of disease stabilization ([5]; advanced tumors): 4-24 months; Objective responses, evaluable patients ([5]; breast cancer): 1/7; Duration of complete disappearance of measurable disease ([5]; lung cancer): 33 months; Objective responses, evaluable patients ([5]; lung cancer): 1/7; Duration of complete disappearance of measurable disease ([5]; melanoma): 42 months; Objective responses, evaluable patients ([5]; melanoma): 1/7; Stable disease, number of patients ([5]; one NSCLC, four breast cancer, one liver cancer): 6 patients; Duration of complete remission ([5]; one patient, metastatic NSCLC): over 14 years; Tolerability ([6]; Phase I, Europe, 1985): well tolerated; Nausea (mild, transient) ([6]; patients): 13%; Vomiting ([6]; patients): 23%; Activity against human tumor cell lines (human tumor cell lines): active against a variety of human tumor cell lines in culture; Cytotoxicity to multiple myeloma [7]: selectively cytotoxic to multiple myeloma in the clonogenic assay; Activity against transplanted tumors (transplanted tumors): active against a variety of transplanted tumors in rodents; Activity against human tumor cell lines in SCID mice [8]: active against human lymphoma, melanoma, and prostate cancer cell lines in SCID mice; Objective responses in dogs (mast cell tumors): Objective responses were observed in dogs with mast cell tumors; Myelosuppression [9]: not myelosuppressive

Which results are given for `COc1cccc2c1C(=O)c1c(O)c3c(c(O)c1C2=O)C[C@@](O)(C(=O)CO)C[C@@H]3O[C@H]1C[C@H](N)[C@H](O)[C@H](C)O1` [Doxorubicin]?
IC50 (8226/S myeloma cells; 8226/S, MTT): 0.00043 µM; Cross-resistance of imexon-resistant cells (8226/I-R myeloma cells; 8226 imexon-resistant cells, MTT): remains sensitive; IC50 (8226/I-R myeloma cells; 8226/I-R, MTT): 0.00032 µM; Fold Resistance (IC50 resistant cells/IC50 sensitive cells) (8226/I-R myeloma cells): 0.79; Resistance of MCF-7/MITOX (MCF-7/MITOX cells): only partially resistant; Resistance of OVCAR-3 [10]: resistant in vitro to clinically relevant concentrations; Cross-resistance of L-1210 MDR [11]: cross-resistant; Fold resistance of WiDr MITOX cells (WiDr MITOX cells): 8 fold; Decrease in sensitivity to doxorubicin (MCF-7/ADR cells): 192 fold

Which “Reversal of resistance” value (MCF-7/D40 cells) does the source give for `COc1ccc(CCN(C)CCCC(C#N)(c2ccc(OC)c(OC)c2)C(C)C)cc1OC` (stereo not shown) [verapamil] here?
The value was “sensitized (resistance reversed)”.

What about the “Reversal of resistance” value (MCF-7/MITOX cells) of the same compound?
Its value is “resistance is not modulated (reversed)”.

What about the “Reversal of resistance” value [11] of the same compound?
The value was “resistance can be reversed”.
